Data from US8883698B2, “Compositions comprising a near terminal-branched compound and methods of making the same” (The Procter & Gamble Co, priority 2010, dated 2014).

Assay: Dynamic Interfacial Tension analysis (Kruss DVT30 Drop Volume Tensiometer), ascending canola oil drop in aqueous surfactant phase
Assay type: physicochemical
Conditions: 6 gpg water hardness; 15° C.
Method: The Dynamic Interfacial Tension analysis was performed on a Kruss® DVT30 Drop Volume Tensiometer. The instrument is configured to measure the interfacial tension of an ascending oil drop in aqueous detergent (surfactant) phase. The oil was canola oil. The aqueous detergent and oil phases are temperature controlled via a Polyscience® circulating water temperature controller attached to tensiometer. A dynamic interfacial tension curve is generated by dispensing the oil drops into the aqueous detergent phase from an ascending capillary with diameter of 0.2540 mm over a range of flow rates and measuring the interfacial tension at each flow rate. Data is generated at oil dispensing flow rates of 500 uL/min-1 uL/min with 2 flow rates per decade on a logarithmic scale (7 flow rates measured). Interfacial tension is measured on three oil drops per flow rate, then averaged. Interfacial tension is reported in units of mN/m. Surface age of the oil drops at each flow rate is also recorded and plots can be generated either of interfacial tension (y-axis) versus oil flow rate (x-axis) or interfacial tension (y-axis) versus oil drop surface age (x-axis).

## 13-Methyltetradecylsulfate
  precipitation observed during interfacial tension measurement: NM (precipitated)
